Data published in patent US20120129834A1, “SEROTONIN RECEPTOR ANTAGONISTS FOR USE IN THE TREATMENT OF HUNTINGTON'S DISEASE” (BUCK INSTITUTE FOR RESEARCH ON AGING, priority 2010, published 2012).
Entries after “also recorded” stand apart in the source; their conditions may differ.

Legend:
STHdh111Q/111Q cells = assay: viability (ATP) assay of cell death in serum deprived STHdh111Q/111Q cells (Prestwick library screen and dose/response); format: cell-based; settings: for loss of viability (ATP levels): dose/response, STHdh111Q/111Q serum deprivation model, FIG. 17 upper panel, n=3/dose; for huntingtin-mediated cell death: screen of the Prestwick Chemical library, cell-based assay of mutant huntingtin-mediated cell death
Description: Viability as measured by ATP levels (normalized to cell number) in cells after 24 h of serum deprivation. Data are show as percent DMSO control (100%). […]
(§1) This library is composed of 1,200 marketed drugs with favorable safety, bioavailability and efficacy properties.

caspase-3/7 = assay: caspase activation assay, STHdh111Q/111Q serum deprivation model; format: cell-based; settings: dose/response, FIG. 17 lower panel, n=3/dose
ERK pathway = assay: activation of the ERK pathway in vivo (striatum, cortex); design: species or system mouse; settings: FIG. 23
DARPP-32 = DARPP-32 expression as measure of disease progression; format: in vivo; settings: mouse model of HD, FIG. 24 panels A-C
R6/2 mouse model of HD [1] = assay: rotarod performance of R6/2 HD mice; format: in vivo; settings: for rotarod performance / rotarod deficit: at 9 weeks of age, 10 mg/kg
R6/2 mouse model of HD [2] = assay: open field behavior analysis in R6/2 mice; format: in vivo; settings: treated vs control
Text: as §1

R6/2 mouse model of HD [3] = assay: lifespan of R6/2 mice; format: in vivo; settings: 10 mg/kg IP daily, treatment groups compared
Text: This may reflect a specific mechanism of action for pizotifen.

[4] = weight loss in the mouse model; format: in vivo; settings: 7.5 mg/kg, FIG. 21

For `CN1CCC(=C2c3ccccc3C=Cc3ccccc32)CC1.Cl` [Cyproheptadine, 4-(5H-dibenzo[a,d]cyclohepten-5-ylidene)-1-methylpiperidine hydrochloride], the “loss of viability (ATP levels)” value (STHdh111Q/111Q cells) was “rescue loss of viability” and the huntingtin-mediated cell death (STHdh111Q/111Q cells) was “reproducibly suppress huntingtin-mediated cell death in a dose-dependent manner”.
In the case of `CN1CCN(C2=Nc3ccccc3Oc3ccc(Cl)cc32)CC1` [Loxapine, 2-Chloro-11-(4-methylpiperazin-1-yl)dibenzo[b,f][1,4]oxazepine], the “loss of viability (ATP levels)” value (STHdh111Q/111Q cells) was “rescue loss of viability”, the huntingtin-mediated cell death (STHdh111Q/111Q cells) was “reproducibly suppress huntingtin-mediated cell death in a dose-dependent manner” and the caspase-3/7 activation (caspase-3/7) was “rescue”.
In the case of `CN1CCC(=C2c3ccccc3CCc3sccc32)CC1` [Pizotifen, 4-(1-methyl-4-piperidylidine)-9,10-dihydro-4H-benzo-[4,5]cyclohepta[1,2]-thiophene], the “activation of the ERK pathway in cortex” value (ERK pathway; cortex) was “not observed; also recorded: not cortex activation”, the “activation of the ERK pathway in striatum” value (ERK pathway; striatum) was “activation of the ERK pathway in vivo; also recorded: striatal, but not cortex activation” and the “DARPP-32 decrease (measure of disease progression)” value (DARPP-32) was “rescued”. The “loss of viability (ATP levels)” value (STHdh111Q/111Q cells) was “rescue loss of viability”, the huntingtin-mediated cell death (STHdh111Q/111Q cells) was “reproducibly suppress huntingtin-mediated cell death in a dose-dependent manner” and the “dose dependence of correction of rotarod” value (R6/2 mouse model of HD [1]; FIG. 20) was “dose-dependent effect; also recorded: dose dependent response”. The rotarod performance (R6/2 mouse model of HD [1]; R6/2 mice, 10 mg/kg IP daily from 5 weeks of age, after one week of treatment) was “improved”, the “rotarod performance / rotarod deficit” value (R6/2 mouse model of HD [1]; R6/2 mice, 10 mg/kg IP daily from 5 weeks of age) was “significant beneficial effects” and the “rotarod performance / rotarod deficit” value (R6/2 mouse model of HD [1]; R6/2 mice, 10 mg/kg IP daily from 5 weeks of age, listed as pizotifin) was “corrects the rotarod deficit to near wild-type levels”. The rotarod performance (R6/2 mouse model of HD [1]; R6/2 mice, 10 mg/kg IP daily, 6-week old group, after three days of treatment) was “significant improvement”, the “motor deficits (Rotarod performance)” value (R6/2 mouse model of HD [1]; R6/2 mice, two independent studies) was “robustly correct motor deficits (i.e. Rotarod performance) in R6/2 to near wild-type levels” and the “open field, general activity level” value (R6/2 mouse model of HD [2]) was “general activity level of treated animals was normal”. For the same compound, the “open field, general activity level” value (R6/2 mouse model of HD [2]; listed as pizotifen) was “no statistical differences”, the lifespan (R6/2 mouse model of HD [3]) was “no statistical differences” and the weight loss [4] was “doesn't improve or worsen weight loss”.
